Assay results: publication PMC10499581 (Journal of Ginseng Research, 2023)
Values belong to the molecule of their own block, whether it stands above or below them.

Tests used:
PURA = biological target: T1, PURA (Rattus norvegicus, UniProt A0A8I5YBE8); test: biolayer interferometry, single concentration; format: binding; conditions: 30 °C, His-tagged PURA immobilized
T1 sequence (A0A8I5YBE8 1-321): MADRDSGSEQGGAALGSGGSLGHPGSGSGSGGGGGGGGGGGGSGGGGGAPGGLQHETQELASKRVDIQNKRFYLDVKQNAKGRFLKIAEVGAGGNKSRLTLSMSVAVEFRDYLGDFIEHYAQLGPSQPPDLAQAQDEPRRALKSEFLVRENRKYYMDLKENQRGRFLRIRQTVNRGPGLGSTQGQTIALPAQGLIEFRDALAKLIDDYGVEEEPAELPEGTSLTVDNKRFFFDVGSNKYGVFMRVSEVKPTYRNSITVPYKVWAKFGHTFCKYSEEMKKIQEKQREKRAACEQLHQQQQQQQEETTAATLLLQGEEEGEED

[1] = biological target: T2, Pur-alpha (PURA), wild type, recombinant His-tagged (rat, UniProt A0A8I5YBE8 1-321); test: BLI
T2 sequence (looked up): T1 sequence (A0A8I5YBE8 1-321)

Molecule: CC(C)=CCC[C@](C)(O[C@@H]1O[C@H](CO)[C@@H](O)[C@H](O)[C@H]1O)[C@H]1CC[C@]2(C)[C@@H]1[C@H](O)C[C@@H]1[C@@]3(C)CC[C@H](O)C(C)(C)[C@@H]3CC[C@]12C [CK]
wavelength shift at 300 μM (PURA): The direct binding strength of PURA to Rb1,Re, Rh1, Rg1, F1, Rd, Rh2,CK, PPD

Molecule: CC(C)=CCC[C@](C)(O[C@@H]1O[C@H](CO)[C@@H](O)[C@H](O)[C@H]1O)[C@H]1CC[C@]2(C)[C@@H]1[C@H](O)C[C@@H]1[C@@]3(C)CC[C@H](O)C(C)(C)[C@@H]3[C@@H](O)C[C@]12C [F1]
wavelength shift at 300 μM (PURA): The direct binding strength of PURA to Rb1,Re, Rh1, Rg1, F1, Rd, Rh2,CK, PPD

Molecule: CC(C)=CCC[C@](C)(O)[C@H]1CC[C@]2(C)[C@@H]1[C@H](O)C[C@@H]1[C@@]3(C)CC[C@H](O)C(C)(C)[C@@H]3[C@@H](O[C@@H]3O[C@H](CO)[C@@H](O)[C@H](O)[C@H]3O)C[C@]12C [Rh1]
wavelength shift at 300 μM (PURA): The direct binding strength of PURA to Rb1,Re, Rh1, Rg1, F1, Rd, Rh2,CK, PPD

Molecule: CC(C)=CCC[C@](C)(O)[C@H]1CC[C@]2(C)[C@@H]1[C@H](O)C[C@@H]1[C@@]3(C)CC[C@H](O[C@@H]4O[C@H](CO)[C@@H](O)[C@H](O)[C@H]4O)C(C)(C)[C@@H]3CC[C@]12C [Rh2]
wavelength shift at 300 μM (PURA): The direct binding strength of PURA to Rb1,Re, Rh1, Rg1, F1, Rd, Rh2,CK, PPD

Kd [1]: 1930 nM
B1: Pur-beta (PURB) (natural protein, UniProt Q68A21 1-315, looked up)
chain: MADGDSGSERGGGGPGSFQPAPRGGGGPGGEQETQELASKRLDIQNKRFYLDVKQNAKGRFLKIAEVGAGGSKSRLTLSMAVAAEFRDSLGDFIEHYAQLGPSSPEQLAAGAEEGGGPRRALKSEFLVRENRKYYLDLKENQRGRFLRIRQTVNRGGGGFGGGPGPGGLQSGQTIALPAQGLIEFRDALAKLIDDYGGEDDELAGGPGGGAGGPGGGLYGELPEGTSITVDSKRFFFDVGCNKYGVFLRVSEVKPSYRNAITVPFKAWGKFGGAFCRYADEMKEIQERQRDKLYERRGGGSGGGDESEGEEVDED
